# Data reported in patent US12590062B2, “PD-1/PD-L1 inhibitors” (Gilead Sciences, Inc., priority 2017, dated 2026).
# How the values were obtained:
# PD-1/PD-L1 interaction = biological target: T1, PD-1/PD-L1 interaction (Homo sapiens, UniProt Q9NZQ7); assay: PD-1/PD-L1 NFAT reporter co-culture assay; assay type: cell-based; details: Jurkat PD-1 NFAT-luciferase cells co-cultured with aAPC-PD-L1 CHO cells, 6 hrs at 37° C.; read-out: EC50 NFAT Luciferase
# T1 construct: expressed in transfected cells; host or cells: CHO cells (aAPC-PD-L1) co-cultured with Jurkat cells overexpressing PD-1 and an NFAT-luciferase reporter
# T1 sequence (Q9NZQ7 19-290): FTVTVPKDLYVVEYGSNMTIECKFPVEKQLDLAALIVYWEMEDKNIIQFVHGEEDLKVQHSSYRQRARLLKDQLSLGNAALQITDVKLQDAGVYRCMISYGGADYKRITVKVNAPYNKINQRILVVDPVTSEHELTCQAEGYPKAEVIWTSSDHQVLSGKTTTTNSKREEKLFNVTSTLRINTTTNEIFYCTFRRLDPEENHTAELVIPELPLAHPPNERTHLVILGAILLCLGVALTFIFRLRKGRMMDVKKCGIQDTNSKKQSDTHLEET
# Summary of the method: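 Luminescence (ONE-Glo) after 6 h, 37 °C co-culture reports NFAT-luciferase in PD-1 Jurkat cells, which PD-1/PD-L1 engagement suppresses. Partner cells: CHO expressing anti-CD3 and PD-L1. EC50 from four-parameter dose-response fit.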
# PD-1/PD-L1 = PD-1/PD-L1 (Homo sapiens, UniProt Q9NZQ7); assay: PD-1/PD-L1 biochemical protein-protein interaction assay (ALPHA); assay type: binding; details: 0.3 nM His tagged PD-L1, 2.5 nM biotinylated Fc-PD-1, 60 minutes at 25° C., read-out: IC50 PD-L1-PD-1 Alpha IC50-mono PD-L1-fcP-D1
# Sequence of PD-1/PD-L1 (Q9NZQ7 19-238 limits assumed): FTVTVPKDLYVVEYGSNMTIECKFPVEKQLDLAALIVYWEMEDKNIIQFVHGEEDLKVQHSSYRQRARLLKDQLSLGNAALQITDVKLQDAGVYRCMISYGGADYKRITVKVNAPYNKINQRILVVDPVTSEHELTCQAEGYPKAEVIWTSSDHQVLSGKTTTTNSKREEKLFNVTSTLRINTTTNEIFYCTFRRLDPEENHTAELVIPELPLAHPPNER
# Summary of the method: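 Final concentrations 0.3 nM His-tagged PD-L1 and 2.5 nM biotinylated Fc-PD-1 (extracellular domains) were reacted with compound for 60 min at 25° C in pH 7.4 Hepes/NaCl/EDTA/Tween/BSA buffer. Binding was then detected by ALPHA beads, and IC50 values were taken from four-parameter curve fitting.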
SMILES,EC50 (PD-1/PD-L1 interaction) [nM],IC50 (PD-1/PD-L1) [nM]
"CCOc1nc(OCc2cccc(-c3cccc(COc4ccc(CNCCO)c(OCC)n4)c3C)c2C)ccc1CNCCO [Example 271, 2,2′-((((((2,2′-dimethyl-[1,1′-biphenyl]-3,3′-diyl)bis(methylene))bis(oxy))bis(2-ethoxypyridine-6,3-diyl))bis(methylene))bis(azanediyl))bis(ethan-1-ol)]",≥ 50000,56
"Cc1c(COc2ccc(CNC[C@@H](O)CC(=O)O)c(-c3cncc(C#N)c3)c2)cccc1-c1cccc(COc2ccc(CNC[C@@H](O)CC(=O)O)c(-c3cncc(C#N)c3)c2)c1C [Example 272, (3S,3′S)-4,4′-((((((2,2′-dimethyl-[1,1′-biphenyl]-3,3′-diyl)bis(methylene))bis(oxy))bis(2-(5-cyanopyridin-3-yl)-4,1-phenylene))bis(methylene))bis(azanediyl))bis(3-hydroxybutanoic acid)]",37700,2.5
"Cc1c(COc2cc(OCc3nc4ccccc4[nH]3)c(CNC[C@@H](O)CC(=O)O)cc2Cl)cccc1-c1cccc(COc2cc(OCc3nc4ccccc4[nH]3)c(CNC[C@@H](O)CC(=O)O)cc2Cl)c1C [Example 273, (3S,3′S)-4,4′-((((((2,2′-dimethyl-[1,1′-biphenyl]-3,3′-diyl)bis(methylene))bis(oxy))bis(2-((1H-benzo[d]imidazol-2-yl)methoxy)-5-chloro-4,1-phenylene))bis(methylene))bis(azanediyl))bis(3-hydroxybutanoic acid)]",≥ 50000,200
"Cc1c(COc2cc(OCc3cncc(C#N)c3)c(CNCc3ccccn3)cc2Br)cccc1-c1cccc(COc2cc(OCc3cncc(C#N)c3)c(CNCc3ccccn3)cc2Br)c1C [Example 275, 5,5′-((((((2,2′-dimethyl-[1,1′-biphenyl]-3,3′-diyl)bis(methylene))bis(oxy))bis(4-bromo-6-(((pyridin-2-ylmethyl)amino)methyl)-3,1-phenylene))bis(oxy))bis(methylene))dinicotinonitrile]",10400,154
"Cc1c(COc2cc(OCc3cncc(C#N)c3)c(CNC[C@@H](F)C(C)(C)O)cc2Cl)cccc1-c1cccc(COc2cc(OCc3cncc(C#N)c3)c(CNC[C@@H](F)C(C)(C)O)cc2Cl)c1C [Example 276, 5,5′-((((((2,2′-dimethyl-[1,1′-biphenyl]-3,3′-diyl)bis(methylene))bis(oxy))bis(4-chloro-6-((((R)-2-fluoro-3-hydroxy-3-methylbutyl)amino)methyl)-3,1-phenylene))bis(oxy))bis(methylene))dinicotinonitrile]",2050,77.8
"Cc1c(COc2cc(O)c(CNC[C@@H](F)C(C)(C)O)cc2Cl)cccc1-c1cccc(COc2cc(OCc3cncc(C#N)c3)c(CNC[C@@H](F)C(C)(C)O)cc2Cl)c1C [Example 277, 5-((4-chloro-5-((3′-((2-chloro-4-((((R)-2-fluoro-3-hydroxy-3-methylbutyl)amino)methyl)-5-hydroxyphenoxy)methyl)-2,2′-dimethyl-[1,1′-biphenyl]-3-yl)methoxy)-2-((((R)-2-fluoro-3-hydroxy-3-methylbutyl)amino)methyl)phenoxy)methyl)nicotinonitrile]",≥ 50000,125
"Cc1c(COc2cc(OCc3cncc(C#N)c3)c(CNC(CO)CO)cc2Cl)cccc1-c1cccc(COc2cc(OCc3cncc(C#N)c3)c(CNC(CO)CO)cc2Cl)c1C [Example 281, 5,5′-((((((2,2′-dimethyl-[1,1′-biphenyl]-3,3′-diyl)bis(methylene))bis(oxy))bis(4-chloro-6-(((1,3-dihydroxypropan-2-yl)amino)methyl)-3,1-phenylene))bis(oxy))bis(methylene))dinicotinonitrile]",488,8.7
"Cc1c(COc2ccc(CNC[C@@H](O)CC(=O)O)cc2Cl)cccc1-c1cccc(COc2ccc(CNC[C@@H](O)CC(=O)O)cc2Cl)c1C [Example 283, (3S,3′S)-4,4′-((((((2,2′-dimethyl-[1,1′-biphenyl]-3,3′-diyl)bis(methylene))bis(oxy))bis(3-chloro-4,1-phenylene))bis(methylene))bis(azanediyl))bis(3-hydroxybutanoic acid)]",20900,0.8
"CCOC(=O)CNCc1cc(Cl)c(O[C@H]2CCc3c(-c4cccc5c4CC[C@@H]5Oc4nc(OC)c(CNCC(=O)OCC)cc4Cl)cccc32)nc1OC [Example 287, Diethyl 2,2′-((((((1S,1′S)-2,2′,3,3′-tetrahydro-1H,1′H-[4,4′-biindene]-1,1′-diyl)bis(oxy))bis(5-chloro-2-methoxypyridine-6,3-diyl))bis(methylene))bis(azanediyl))diacetate]",958,457
CC(CO)(NCc1cc(Cl)c(O[C@H]2CCc3c(-c4cccc5c4CC[C@@H]5Oc4nc(OCc5cncc(S(C)(=O)=O)c5)c(CNC(C)(CO)C(=O)O)cc4Cl)cccc32)nc1OCc1cncc(S(C)(=O)=O)c1)C(=O)O (some centres unmarked) [Example 298],21,0.051
Cc1c(COc2cc(OCc3cncc(C#N)c3)c(CNC[C@@H](O)CC(=O)O)cc2Cl)cccc1-c1cccc(-c2ccc(OCCNC[C@@H](O)CC(=O)O)c(F)c2)c1C [Example 314],188,0.064
"Cc1c(COc2cc(OCc3cncc(C#N)c3)c(CNC[C@@H](O)CC(=O)O)cc2Cl)cccc1-c1cccc(-c2ccc(OCCNC[C@@H](O)CC(=O)O)cc2Cl)c1C [Example 315, (S)-4-((4-((4″-(2-(((S)-3-carboxy-2-hydroxypropyl)amino)ethoxy)-2″-chloro-2,2′-dimethyl-[1,1′:3′,1″-terphenyl]-3-yl)methoxy)-5-chloro-2-((5-cyanopyridin-3-yl)methoxy)benzyl)amino)-3-hydroxybutanoic acid]",1250,0.242
"Cc1c(-c2ccc(OCCNC[C@@H](O)CC(=O)O)cc2)cccc1-c1cccc2c1CC[C@@H]2Oc1nc(OCCCC#N)c(CNC[C@@H](O)CC(=O)O)cc1Br [Example 327, (S)-4-((2-((3′-((S)-1-((3-bromo-5-((((S)-3-carboxy-2-hydroxypropyl)amino)methyl)-6-(3-cyanopropoxy)pyridin-2-yl)oxy)-2,3-dihydro-1H-inden-4-yl)-2′-methyl-[1,1′-biphenyl]-4-yl)oxy)ethyl)amino)-3-hydroxybutanoic acid]",114,0.051
"Cc1c(COc2cc(OCc3cncc(C#N)c3)c(CNC[C@@H](O)CC(=O)O)cc2Cl)cccc1-c1cccc(-c2ccc3ncnc(NCCO)c3c2)c1C [Example 337, (S)-4-((5-chloro-2-((5-cyanopyridin-3-yl)methoxy)-4-((3′-(4-((2-hydroxyethyl)amino)quinazolin-6-yl)-2,2′-dimethyl-[1,1′-biphenyl]-3-yl)methoxy)benzyl)amino)-3-hydroxybutanoic acid]",1920,0.287
"Cc1c(COc2cc(OCc3cncc(C#N)c3)c(CNC[C@@H](O)CC(=O)O)cc2Cl)cccc1-c1cccc(-c2ccc(N3CCNCC3)cc2)c1C [Example 339, (S)-4-((5-chloro-2-((5-cyanopyridin-3-yl)methoxy)-4-((2,2′-dimethyl-4″-(piperazin-1-yl)-[1,1′:3′,1″-terphenyl]-3-yl)methoxy)benzyl)amino)-3-hydroxybutanoic acid]",2220,1.3
"COc1cc(OCc2cccc(-c3cccc(COc4cc(OCc5cncc(C#N)c5)c(CNC[C@@H](O)CC(=O)O)cc4Cl)c3C)c2C)c(Cl)cc1CNCC(=O)NS(C)(=O)=O [Example 355, (S)-4-((5-chloro-4-((3′-((2-chloro-5-methoxy-4-(((2-(methylsulfonamido)-2-oxoethyl)amino)methyl)phenoxy)methyl)-2,2′-dimethyl-[1,1′-biphenyl]-3-yl)methoxy)-2-((5-cyanopyridin-3-yl)methoxy)benzyl)amino)-3-hydroxybutanoic acid]",712,0.148
"Cc1c(COc2cc(OCc3cncc(C#N)c3)c(CN(C)C)cc2Cl)cccc1-c1cccc(-c2ccc(CN(C)C)s2)c1C [Example 366, 5-((4-chloro-2-((dimethylamino)methyl)-5-((3′-(5-((dimethylamino)methyl)thiophen-2-yl)-2,2′-dimethyl-[1,1′-biphenyl]-3-yl)methoxy)phenoxy)methyl)nicotinonitrile]",2840,2.33
"Cc1c(COc2cc(OCc3cncc(C#N)c3)c(CN[C@@](C)(CO)C(=O)O)cc2Cl)cccc1-c1cccc(-c2ccc3c(c2)OCC3N(C)C)c1C (stereo partly drawn) [Example 376, (2S)-2-((5-chloro-2-((5-cyanopyridin-3-yl)methoxy)-4-((3′-(3-(dimethylamino)-2,3-dihydrobenzofuran-6-yl)-2,2′-dimethyl-[1,1′-biphenyl]-3-yl)methoxy)benzyl)amino)-3-hydroxy-2-methylpropanoic acid]",770,0.346
"Cc1c(COc2cc(OCc3cncc(C#N)c3)c(CN[C@@](C)(CO)C(=O)O)cc2Cl)cccc1-c1cccc(-c2ccc3c(c2)CC[C@H]3N(C)C)c1C [Example 378, (S)-2-((5-chloro-2-((5-cyanopyridin-3-yl)methoxy)-4-((3′-((R)-1-(dimethylamino)-2,3-dihydro-1H-inden-5-yl)-2,2′-dimethyl-[1,1′-biphenyl]-3-yl)methoxy)benzyl)amino)-3-hydroxy-2-methylpropanoic acid]",191,0.127
